Patent publication US8492368B2 (priority 2011, dated 2013)

Assays:
rats suffering from TBI = details: 16 mg/kg, 72 hours post-injury, moderate to severe brain injury, FIG. 1, p<0.05; cited from earlier work
traumatic brain injury = details: cited from earlier work; for factors of cell death, brain swelling and inflammation: TBI
[1] = test system: rats that have suffered a concussion (mTBI); assay: Morris Water Maze latency to platform in mTBI (concussion) model, FIG. 8; assay type: in vivo; details: vs vehicle-injured rats, p<0.05
P-glycoprotein (PGP) = assay: P-glycoprotein protein abundance in penumbral region of injured brain, FIG. 6; assay type: in vivo, rodents; details: 72 hours post-injury, vs vehicle and sham, p<0.05, FIG. 6
severe TBI patients = details: six months; cited from earlier work
[2] = test system: male reproductive function; details: males; cited from earlier work
glutathione reductase = details: 72 hours post-injury, compared to all other groups, FIG. 2, p<0.01; cited from earlier work
[3] = target: T1, progesterone receptor (PR) (Homo sapiens, UniProt P06401); details: cited from earlier work
T1 sequence (P06401 1-933): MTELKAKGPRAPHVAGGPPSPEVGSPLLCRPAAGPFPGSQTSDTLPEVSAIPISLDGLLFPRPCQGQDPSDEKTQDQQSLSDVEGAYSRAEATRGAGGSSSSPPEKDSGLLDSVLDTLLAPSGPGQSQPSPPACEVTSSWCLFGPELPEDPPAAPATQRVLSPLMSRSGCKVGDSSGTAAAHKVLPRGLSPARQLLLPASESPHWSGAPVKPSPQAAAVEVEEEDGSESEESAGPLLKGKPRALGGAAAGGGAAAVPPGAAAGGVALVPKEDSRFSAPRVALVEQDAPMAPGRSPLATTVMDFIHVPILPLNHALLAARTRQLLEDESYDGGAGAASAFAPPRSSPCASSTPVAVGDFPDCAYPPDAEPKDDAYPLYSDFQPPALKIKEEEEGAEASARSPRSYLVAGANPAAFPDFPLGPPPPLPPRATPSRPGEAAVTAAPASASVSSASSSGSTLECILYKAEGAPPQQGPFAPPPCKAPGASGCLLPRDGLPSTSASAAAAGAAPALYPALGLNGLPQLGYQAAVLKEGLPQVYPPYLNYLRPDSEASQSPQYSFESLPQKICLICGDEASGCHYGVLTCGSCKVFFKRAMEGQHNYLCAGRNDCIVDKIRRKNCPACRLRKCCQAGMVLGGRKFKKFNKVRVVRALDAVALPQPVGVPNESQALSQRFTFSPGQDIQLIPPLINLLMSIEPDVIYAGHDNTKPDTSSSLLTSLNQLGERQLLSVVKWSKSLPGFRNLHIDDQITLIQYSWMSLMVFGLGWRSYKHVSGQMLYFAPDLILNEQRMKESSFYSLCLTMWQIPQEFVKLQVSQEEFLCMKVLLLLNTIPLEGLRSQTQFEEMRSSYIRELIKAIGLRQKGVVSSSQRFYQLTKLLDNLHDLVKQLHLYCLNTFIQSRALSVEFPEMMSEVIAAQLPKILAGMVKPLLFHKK

| Compound | brain water content (measure of edema) (rats suffering from TBI) | factors of cell death (caspase-3) and gliosis (GFAP) (traumatic brain injury; following injury) | latency to platform, post-acute administration ([1]; 15 minutes post mTBI (1 hour post)) | latency to platform, prophylactic administration ([1]; 15 minutes prior to mTBI (1 hour prior)) | protein abundance of P-glycoprotein (PGP) (P-glycoprotein (PGP)) | neurological outcomes long-term (severe TBI patients) | factors of cell death, brain swelling and inflammation (traumatic brain injury) | edema (traumatic brain injury; both rodent sexes following injury) | genes promoting the inflammatory cascade: Bcl-2, IL-1β and Cxcl-10 (traumatic brain injury; following TBI, previous study) | inflammatory factors (TNF-α and IL-1β) (traumatic brain injury; following injury) | Neurological Severity Score (motor and cognitive functioning) (traumatic brain injury; rats following injury) | conversion of testosterone to dihydrotestosterone [2] | size of reproductive organs [2] | spermatogenesis [2] | anti-oxidant activity of glutathione reductase (glutathione reductase) | activation of PR-mediated transcription [3] |
| --- | --- | --- | --- | --- | --- | --- | --- | --- | --- | --- | --- | --- | --- | --- | --- | --- |
| CC(=O)[C@H]1CC[C@H]2[C@@H]3CC[C@H]4C[C@H](O)CC[C@]4(C)[C@H]3CC[C@]12C [ALLO, allopregnanolone] | normalizes brain water content | decreased |  |  |  |  |  |  |  |  |  |  |  |  |  |  |
| CC(=O)[C@H]1CC[C@H]2[C@@H]3CCC4=CC(=O)CC[C@]4(C)[C@H]3CC[C@]12C [Prog, progesterone] | normalizes brain water content | decreased | decreases latency to platform | decreases latency to platform | increase | better neurological outcomes | equivalently reduce | effectively attenuates | down-regulated | inhibiting | significant improvements | inhibits | reduces | suppresses |  |  |
| CC(=O)[C@@H]1CC[C@@H]2[C@H]3CCC4=CC(=O)CC[C@@]4(C)[C@@H]3CC[C@]21C [ent-Prog, ent-progesterone] | normalizes brain water content |  |  |  | increase |  | equivalently reduce |  |  |  |  |  |  |  | significantly increases | does not activate |
